Test results published in US20050074810A1, “Method for non-invasilvely determining the relative levels of two biological substances” (priority 2001, published 2005).
Like-named read-outs stand apart in the source and are kept apart here.

Columns and labels:
[1] = In vitro reverse iontophoretic extraction of glucose and sodium (Example 5); assay type: in vitro ADME, pig; settings: subdermal glucose 10 mM
Method: The anode was placed in the sub-dermal, “donor” chamber, which contained a physiological pH 7.4 buffer (25 mM Tris/TrisHCl+133 mM NaCl) to which the analyte glucose was added at a concentration of 10 mM.
To facilitate the analytical chemistry, the donor solutions were spiked with tritiated glucose.
(§1) The cathodal (collection) chamber, which contacted the outer surface of the skin, contained a 25 mM Tris/TrisHCl buffer at pH 7.4.
The experimental design was identical to that in FIG. 11, with the exception that glucose spiked with tritiated glucose replaced mannitol spiked with ^14C-labeled mannitol.
During this period, the entire content of the cathode solution was withdrawn every 60 minutes and the chamber was refilled with fresh buffer.

[2] = subdermal lactate 1.74 mM, ammonium 1.56 mM
[3] = human volunteer, 0.3 mA/cm^2, 5.5 hours, 15 min samples, food ingested
[4] = in vivo, 4 mA for 5 minutes, 4.5 cm^2, lithium nitrate electrolyte; cited from earlier work
[5] = In vitro reverse iontophoretic extraction of mannitol and sodium (Example 3, first experiment)
Method: The anode was placed in the sub-dermal, “donor” chamber, which contained a physiological pH 7.4 buffer (25 mM Tris/TrisHCl+133 mM NaCl) to which the analyte mannitol was added.
In a first experiment, mannitol concentration was 5 mM for the first three hours of experiment and was then increased to 10 mM for a subsequent period of three hours.
(§2) To facilitate the analytical chemistry, the donor solutions were spiked with ^14C-labeled mannitol.
The cathodal (collection) chamber, which contacted the outer surface of the skin contained a 25 mM Tris/TrisHCl buffer at pH 7.4.
(§3) During the first 3-hour period, the entire content of the cathode solution was withdrawn every 60 minutes and the chamber was refilled with fresh buffer.
During the second 3-hour period, the 5 mM mannitol donor solution was replaced with 10 mM mannitol, and the cathodal chamber was then sampled every 30 minutes.

[6] = In vitro reverse iontophoretic extraction of mannitol and sodium with varied sodium level (Example 4)
Method: The anode was placed in the sub-dermal, “donor” chamber, which contained a physiological pH 7.4 buffer (25 mM Tris/TrisHCl+4 mM KCl).
Both the concentration of the analyte of interest and the internal standard were modified during the experiment.
as §2, §1, §3
During the final 1-hour period, the donor solution was replaced with 5 mM mannitol/ 133 mM NaCl, and the cathodal chamber was then sampled every 30 minutes.

[7] = In vitro reverse iontophoretic extraction of mannitol and sodium (Example 3, second experiment)
Method: In a second experiment, performed under identical conditions to the first (see FIG. 11), mannitol concentration was 5 mM for the first three hours of experiment, it was then reduced to 3 mM for a subsequent period of one hour and then increased to 10 mM for a subsequent period of one hour.
as §3
During the second 1-hour period, the 5 mM mannitol donor solution was replaced with 3 mM mannitol, and the cathodal chamber was then sampled every 30 minutes.
During the third 1-hour period, the 3 mM mannitol donor solution was replaced with 10 mM mannitol, and the cathodal chamber was then sampled every 30 minutes.

[8] = subdermal mannitol 5 mM, 60 min
[9] = subdermal mannitol 5 mM, 120 min
[10] = subdermal mannitol 5 mM, 180 min
[11] = subdermal mannitol 10 mM, 270 min
[12] = subdermal mannitol 10 mM, 300 min

Sodium^+ flux ([1]; 60 min): 8.7 ± 0.6 μmol · h^−1 · cm^−2
Sodium^+ flux ([1]; 120 min): 9.8 ± 0.4 μmol · h^−1 · cm^−2
Sodium^+ flux ([1]; 180 min): 10.1 ± 0.3 μmol · h^−1 · cm^−2
Sodium^+ flux ([1]; 240 min): 10.0 ± 0.3 μmol · h^−1 · cm^−2
Sodium^+ flux ([1]; 300 min): 10.2 ± 0.3 μmol · h^−1 · cm^−2
Sodium^+ flux ([1]; 360 min): 10.2 ± 0.3 μmol · h^−1 · cm^−2
Deduced transport number (×100) ([2]; 3 h): 67.72 ± 7.98 ×100
Deduced transport number (×100) ([2]; 5 h): 72.07 ± 1.07 ×100
Iontophoretically extracted flux over the experiment [3]: remained effectively constant
Sodium^+ flux [5, 8]: 7.9 ± 0.5 μmol · h^−1 · cm^−2
Sodium^+ flux [5, 9]: 9.7 ± 0.6 μmol · h^−1 · cm^−2
Sodium^+ flux [5, 10]: 10.1 ± 0.4 μmol · h^−1 · cm^−2
Sodium^+ flux ([5]; subdermal mannitol 10 mM, 210 min): 10.3 ± 0.5 μmol · h^−1 · cm^−2
Sodium^+ flux ([5]; subdermal mannitol 10 mM, 240 min): 10.4 ± 0.6 μmol · h^−1 · cm^−2
Sodium^+ flux [5, 11]: 10.3 ± 0.4 μmol · h^−1 · cm^−2
Sodium^+ flux [5, 12]: 10.6 ± 0.3 μmol · h^−1 · cm^−2
Sodium^+ flux ([5]; subdermal mannitol 10 mM, 330 min): 10.7 ± 0.3 μmol · h^−1 · cm^−2
Sodium^+ flux ([5]; subdermal mannitol 10 mM, 360 min): 10.5 ± 0.6 μmol · h^−1 · cm^−2
Sodium^+ flux ([6]; subdermal [Mannitol]/[Na^+] 5/133 mM (last hour), 330 min): 11.2 ± 1.2 μmol · h^−1 · cm^−2
Sodium^+ flux ([6]; subdermal [Mannitol]/[Na^+] 5/133 mM (last hour), 360 min): 11.4 ± 0.3 μmol · h^−1 · cm^−2
Sodium^+ flux ([6]; subdermal [Mannitol]/[Na^+] 5/133 mM, 60 min): 8.4 ± 0.8 μmol · h^−1 · cm^−2
Sodium^+ flux ([6]; subdermal [Mannitol]/[Na^+] 5/133 mM, 120 min): 10.7 ± 0.4 μmol · h^−1 · cm^−2
Sodium^+ flux ([6]; subdermal [Mannitol]/[Na^+] 5/133 mM, 180 min): 11.0 ± 0.3 μmol · h^−1 · cm^−2
Sodium^+ flux ([7]; subdermal mannitol 3 mM, 210 min): 10.9 ± 0.7 μmol · h^−1 · cm^−2
Sodium^+ flux ([7]; subdermal mannitol 3 mM, 240 min): 9.7 ± 0.5 μmol · h^−1 · cm^−2
Sodium^+ flux [7, 8]: 8.8 ± 0.7 μmol · h^−1 · cm^−2
Sodium^+ flux [7, 9]: 10.2 ± 0.7 μmol · h^−1 · cm^−2
Sodium^+ flux [7, 10]: 10.4 ± 0.7 μmol · h^−1 · cm^−2
Sodium^+ flux [7, 11]: 9.4 ± 0.6 μmol · h^−1 · cm^−2
Sodium^+ flux [7, 12]: 9.3 ± 0.4 μmol · h^−1 · cm^−2
Compound: [Na+] [Na^+, sodium]
Concentration in the cathode chamber after current passage [4]: ~35 μEq/L
